In patent publication US9493420B2, “Quinoline derivatives and uses thereof” (Portland State University, priority 2005, dated 2016):
Read-outs that look alike come from different tables or passages of the source.

Legend:
[1] = test system: D6 (CQ^S) P. falciparum strain; assay: In vitro fluorescence (Sybr Green I) growth inhibition assay, D6 strain; type: cell-based; settings: Plasmodium falciparum
Source text: (§1) One exemplary method for measuring inhibitory effects of RCQ compound in vitro has been reported by Smilkstein et al. (Antimicrob. Agents Chemother., 48(5):1803-1806, 2004). This method employs fluorescent detection of the level of parasitemia in cultured red blood cells and can be automated for high-throughput screening of antimalarial RCQs. This exemplary method allows the inhibitory agent (such as a RCQ) to be in contact with the parasite for an entire developmental cycle without purine starvation, which is in contrast to the traditional ^3H-hypoxanthine method (Desjardins et al., Antimicrob. Agents Chemother., 16(6):710-718, 1979). Briefly, to perform the Smilkstein et al. method, an initial parasitemia of approximately 0.2% is attained by adding uninfected red blood cells (RBCs) to a stock culture of Plasmodium sp.-infected RBCs. […] After a period of incubation (such as about 72 hours), a sufficient amount (e.g., 100 μL) of a fluorescent DNA binding dye-detergent mixture (e.g., Sybr Green I dye-detergent mixture) to lyse cells and bind to DNA is added to the reactions. Because uninfected RBCs have no DNA, only parasite DNA (in infected RBCs) is available for binding to the fluorescent dye (e.g., Sybr Green I). Samples are then incubated in the dark for a period of time (e.g., one hour), followed by measurement of levels of fluorescence. For Sybr Green I, excitation and emission wavelength are 485 and 530 nm, respectively. Fluorescence readings, which represent the amount of parasite DNA in the sample, can be plotted against the Log [drug] and fit to a curve by nonlinear regression to obtain the IC50 value for the tested compound.
(§2) An in vitro fluorescence assay for determining IC50 of antimalarial drugs was performed as previously described by Smilkstein et al. (Antimicrob. Agents Chemother., 48(5):1803-1806, 2004). This relatively low-cost procedure can be automated for high-throughput screening of the antimalarial activities of RCQs described herein. Advantageous, this method also allows the tested agent (e.g, a RCQ) to be in contact with the parasite for an entire developmental cycle without purine starvation (which occurs with the commonly used ^3H-hypoxanthine method; see, e.g., Desjardins et al., Antimicrob. Agents Chemother., 16, (6):[…], 1979).
(§3) Briefly, an initial parasitemia of approximately 0.2% was attained by addition of uninfected red blood cells to a stock culture of cells infected with Dd2 (CQ^R) or D6 (CQ^S) P. falciparum strains. A 10 mM RCQ_02 solution (in DMSO) was prepared. RCQ_02 (at a final concentration from 10^−11 to 10^−4 M) and infected red blood cells (at a final concentration of 2% (v/v)) were mixed in 100 μL samples in individual wells of a 96-well plate. Each sample was prepared in triplicate. A triplicate set of reactions containing CQ (instead of RCQ_02) was included as a control. After a 72 hour incubation period, Sybr Green I dye-detergent mixture (100 μL) was added to each reaction. The samples were further incubated for an hour in the dark, and then placed in a 96-well fluorescence plate reader (Gemini-EM, […]) and analyzed with excitation and emission wavelength bands at 485 and 530 nm, respectively. Fluorescence readings were plotted against the Log [drug], and curve fitting performed by nonlinear regression to find the IC50 value.

[2] = test system: Dd2 (CQ^R) P. falciparum strain; assay: In vitro fluorescence (Sybr Green I) growth inhibition assay, Dd2 strain; type: cell-based; settings: Plasmodium falciparum
Source text: as §1, §2, §3

[3] = test system: W2 (CQ^R) P. falciparum strain; assay: In vitro fluorescence (Sybr Green I) growth inhibition assay, W2 strain; type: cell-based; settings: Plasmodium falciparum
[4] = pH 5.7; Dorn et al., Xu et al.; cited from earlier work
P. falciparum strain D6 = settings: cited from earlier work; also: key: S = sensitive; R = resistant; S/R = intermediate level of resistance
[5] = test system: P. falciparum strain FCR3; settings: cited from earlier work; also: key: S = sensitive; R = resistant; S/R = intermediate level of resistance
P. falciparum strain W2 = settings: cited from earlier work; also: key: S = sensitive; R = resistant; S/R = intermediate level of resistance
P. falciparum strain Dd2 = settings: cited from earlier work; also: key: S = sensitive; R = resistant; S/R = intermediate level of resistance
P. falciparum strain 3D7 = settings: cited from earlier work; also: key: S = sensitive; R = resistant; S/R = intermediate level of resistance
[6] = test system: P. falciparum strain TM91C235; settings: cited from earlier work; also: key: S = sensitive; R = resistant; S/R = intermediate level of resistance
[7] = Heme binding by UV-VIS spectrophotometric titration (association constant); settings: similar methodologies as for RCQ_02
Source text: Optionally, heme binding of RCQ compounds can be determined by any method known in the art, including, for example, spectrophotometric methods, like UV-VIS spectroscopy or NMR spectroscopy. Methods of measuring heme binding to a variety of molecules using the UV-VIS spectrum have been described (see, e.g., Xu et al., J. Inorg. Biochem., 86 (2-3):617-625, 2001; Xu et al., Antimicrob. Agents Chemother., 46(1):144-150, 2002). Generally, a heme-binding compound (such as a disclosed RCQ) is mixed in increasing concentration with heme (or a heme model compound, such as porphyrin or metalloporphyrin) and the absorbance spectrum is measured from the ultraviolet region well into the visible region (from about 300 nm to about 750 nm). This spectral range includes the so-called Soret and Q-band regions that arise from porphyrin or metalloporphyrin absorbance. Upon interaction between a heme-binding compound and heme (or a heme model compound, such as porphyrin or metalloporphyrin), decreased absorbance in the Soret region is observed. […]
In particular examples, the formation of heme-RCQ complexes can be determined by UV-VIS spectrophotometric titration, using a variety of commercially available spectrophotometers (such as a Varian-Cary 3E spectrophotometer). […] Optionally, pH can be monitored throughout the procedure to ensure that it remains unchanged. […]

[8] = test system: mitogen-induced murine spleen lymphocytes; type: cell-based; settings: LC50; mouse spleen lymphocytes; 72 hours + 24 hours resazurin
Protocol: Mouse spleen lymphocytes were isolated from C57B1/6J mice by teasing tissues on a metallic sieve screen. […] Two hundred (200) μl isolated cells were then seeded in separate wells of a 96-well flat-bottom tissue culture plate at a density of 2×10^5 cells per well. […] After 72 hours incubation in a humidified atmosphere at 37° C. and 5% CO2, a solution of resazurin PBS was added to a final concentration 10 μM, and the plates were returned to the incubator for another 24 hours. Resazurin is a substrate which changes color in response to metabolic activity (such as, living cells). […] LC50 values were determined from plots of florescence versus drug concentration using non-linear regression by Prism software.

heme association constant [7] | Compound | IC50 ([1]; D6, 72 h) | IC50 ([1]; D6, read-out: IC50 (nM) D6 (CQ^S)) | IC50 ([2]; DD2, 72 h) | IC50 ([2]; DD2, read-out: IC50 (nM) Dd2 (CQ^R)) | IC50 ([3]; W2, read-out: IC50 (nM) W2 (CQ^R)) | association constant reported for CQ.heme2 [4] | Drug susceptibility, strain D6 (P. falciparum strain D6) | Drug susceptibility, strain FCR3 [5] | Drug susceptibility, strain W2 (P. falciparum strain W2) | Drug susceptibility, strain Dd2 (P. falciparum strain Dd2) | Drug susceptibility, strain 3D7 (P. falciparum strain 3D7) | Drug susceptibility, strain TM91C235 [6] | IC50 ([1]; D6, Table 13, growth inhibition, read-out: IC50 (nM) D6 (CQ^S)) | IC50 ([2]; DD2, Table 13, growth inhibition, read-out: IC50 (nM) Dd2 (CQ^R)) | IC50 ([3]; W2, Table 13, growth inhibition, read-out: IC50 (nM) W2 (CQ^R)) | Cytotoxicity [8]
 | CCN(CC)CCCC(C)Nc1ccnc2cc(Cl)ccc12 (centres unmarked) [CQ, chloroquine] | 6.5 nM | 6.9 nM | 102 nM | 102 nM | 250 nM | ~400000 M⁻¹ | S | R | R | R | S | R |  |  |  | 
500000 M⁻¹ | Clc1ccc2c(NCCN3CCN(C(c4ccccc4)c4ccccc4)CC3)ccnc2c1 [RCQ_31] |  |  |  |  |  |  |  |  |  |  |  |  | 1 nM | 3.6 nM | 4.3 nM | 1900 nM
